What was measured:
[1] = target: T1, RORC2 ligand binding domain (6-His-RORC2 LBD) (Homo sapiens, UniProt P51449); experiment: Co-activator recruitment by TR-FRET; format: biochemical; details: 6.3 nM RORC2 LBD, 200 nM SRC1-2 coactivator peptide, 3 hr room temperature
T1 construct: made in house; host or cells: E. coli
T1 sequence (P51449 269-508 limits assumed): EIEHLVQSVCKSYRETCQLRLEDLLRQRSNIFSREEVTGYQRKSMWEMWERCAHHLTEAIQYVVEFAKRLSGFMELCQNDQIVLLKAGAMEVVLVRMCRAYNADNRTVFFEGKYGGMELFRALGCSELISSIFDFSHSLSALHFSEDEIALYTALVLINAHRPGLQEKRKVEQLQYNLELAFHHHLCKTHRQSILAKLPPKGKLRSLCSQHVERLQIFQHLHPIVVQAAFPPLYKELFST
Description: The activity of compound of the invention can be determined by a co-activator recruitment by TR-FRET (time-resolved fluorescence resonance energy transfer) assay. In general, the assay is based on the interaction between N-terminally Six-Histidine-tagged-RORC2 ligand binding domain (6-His-RORC2 LBD), expressed in E. coli and purified by affinity chromatography, and biotin-coactivator peptide SRC1-2 (biotin-aminohexanoic acid-[…]-NH2; SEQ ID NO: 1) containing the LXXLL consensus domain which is responsible for receptor binding. This interaction is detected by addition of Europium labeled-anti-His antibody (Ex. 337 nm, Em. 620 nm, which binds to 6His) and Streptavidin-APC (Ex. 620 nm, Em. 665 nm, which binds to biotin). When receptor and coactivator are bound to each other, upon shining light at 337 nm on the sample, the Europium emits fluorescence that excites APC due to close proximity (FRET) and this signal is measured at 665 nm. Due to the long lasting fluorescence emission of Europium, the non-specific, short-lived fluorescence is time-resolved (TR) from the fluorescence of interest. Inhibitors of the interaction of receptor and coactivator peptide are detected by a decrease in TR-FRET signal.
Specifically, in one embodiment the aforementioned assay was performed as outlined below. The assay was carried out in black polystyrene. 384-well plates in a total assay volume of 50.5 μL. The assay buffer contained 50 mM TRIS-HCL pH 7.5, 1 mM NaCl, 2 mM MgCl2, 0.5 mg/mL bovine serum albumin, and 5 mM dithiothreitol. The final concentration of reagents was 6.3 nM RORC2 LBD, 200 nM SRC1-2, 50 nM streptavidin APC, 1 nM Europium-labeled anti-His antibody, and varying concentrations of compounds such that final concentration of DMSO is 1% (v/v). The assay steps were: (1) dispensing […] compound at 100× final concentration in DMSO (test wells) or DMSO only (control wells for no inhibition); and (2) dispensing 50 μL mixture of the other assay components including receptor (test wells) or excluding receptor (control wells for maximal inhibition).
Assay mixtures were incubated are room temperature for 3 hr and read in EnVision 2100 Multilabel Reader (PerkinElmer Life Sciences) at Excitation Filter 320, Emission Europium Filter 615, Emission APC Filter 665, Dichroic Mirror D400/D630.
TR-FRET signal was determined by calculating the ratio of 665 nm by 615 nm and […] values of compounds of the invention (Table 1) were determined by the non-linear regression analysis of dose response curves.

[2] = system: human Th17 cells; experiment: IL-17 production from human Th17 cells; format: cell-based; details: 144 h; IL-17A in supernatant by ELISA (MSD) after 6 days, human CD4+ T cells, anti-CD3 + anti-CD28 + cytokine cocktail
Method: The activity of compound of the invention can be also be determined by an IL-17 production from human Th17 cells assay. In general, this assay measures blockade of IL-17 production, the signature cytokine of T helper 17 (Th17) cells, by compounds. Purified human CD4+ T cells are stimulated with anti-CD3+anti-CD28 and incubated with a cytokine cocktail that induce their differentiation into Th17 in the absence or presence of various concentrations of compound. After 6 days, IL-17A concentration is measured in the cell culture supernatant with an ELISA kit (MSD).
Preparation of human CD4+ T cells. CD4+ T cells were purified from buffy coats from healthy donors (obtained from Massachusetts General Hospital) by negative selection the following procedure: Mixing 25 mL of blood with 1 mL of Rosette Sep CD4+ T cell enrichment cocktail (StemCell Technologies) followed by application of a layer of 14 mL Ficoll Paque Plus (Amersham GE Healthcare) and subsequent centrifugation at 1200 g for 20 min at room temperature. The Ficoll layer was then harvested and washed with phosphate saline buffer containing 2% (v/v) fetal bovine serum and cells were resuspended with RPMI medium containing 10% (v/v) fetal bovine serum and 10% (v/v) DMSO, frozen and kept in LN2 until used.
On the first day of the assay, a vial containing 10^7 CD4+ T cells is thawed rapidly in 37° C. water bath, immediately transferred into 20 mL X-Vivo 15 medium (Lonza), is spun for 6 min at 300×g, the supernatant is discarded, and the resulting pellet is re-suspended at 10^6 cells/mL in […] fresh X-Vivo 15 medium, followed by storage overnight in a tissue culture vessel in a humidified chamber at 37° C. and 5% CO2. Serial dilutions of compounds of the invention are prepared at 10× final concentration in X-Vivo15 medium containing 3% (v/v) DMSO.
On the second day of the assay, a 384-well tissue culture plate was coated with 10 μg/mL anti-hCD3 (eBioscience) at 50 μL/well. After 2 hr at 37° C., the supernatant is discarded and the coated plates are kept in a sterile tissue culture hood.
Cytokine plus anti-CD28 cocktail is prepared by mixing 25 ng/mL hIL-6 (Peprotech), 5 ng/mL hTGFbeta1 (Peprotech), 12.5 ng/mL IL-1beta (Peprotech), 25 ng/mL hIL-21, 25 ng/mL hIL-23 (R&D Systems), and 1 ug/mL anti-hCD28 (eBioscience) in X-Vivo 15 medium. The cytokine plus anti-CD28 cocktail with CD4+ cells is prepared such that the cocktail is diluted 10-fold and cell density is 0.22×10^6/mL. The mixture is incubated 1 hr at 37° C.
90 μL (20,000 cells) dispensed per well in the anti-hCD3 coated plate prepared as noted above.
10 μL 10× compound is added per well (final DMSO=0.3%) from the compound plate that was previously prepared, followed by 6 days of incubation in a tissue culture vessel in a humidified chamber at 37° C. and 5% CO2.
On day six of the assay, production of IL-17A in 10 μL of the supernatant is determined by sandwich ELISA using 384w hIL17 MSD plates following the manufacturer's protocol. Measurement is carried out in a Sector Imager 6000 by the same manufacturer. Signal units from the instrument are converted to pg/mL using a calibration curve with known amounts of IL-17A. IC50 values of test compounds (Table 2) are determined by the non-linear regression analysis of dose response curves.

| IC50 [1] [nM] | IC50 [2] [nM] | SMILES |
| --- | --- | --- |
| 5.7 | 7.2 | COc1c(NC(=O)c2cccc(C#N)c2)cnc2c1c([C@@H]1CCN(C(=O)C3CCCC3)C(C)(C)C1)cn2C [Example 31, (R)-3-cyano-N-(3-(1-(cyclopentanecarbonyl)-2,2-dimethylpiperidin-4-yl)-4-methoxy-1-methyl-1H-pyrrolo[2,3-b]pyridin-5-yl)benzamide] |
| 5.8 | 11 | COc1ccc(C(=O)Nc2cnc3c(c([C@@H]4CCN(C(=O)C5CCCCC5)C(C)(C)C4)cn3C)c2OC)cc1C#N [Example 32, (R)-3-cyano-N-(3-(1-(cyclohexanecarbonyl)-2,2-dimethylpiperidin-4-yl)-4-methoxy-1-methyl-1H-pyrrolo[2,3-b]pyridin-5-yl)-4-methoxybenzamide] |
| 8.5 | 15.6 | COc1c(NC(=O)c2cccc(C#N)c2)cnc2c1c([C@@H]1CCN(C(=O)C3CC(C)(C)C3)C(C)(C)C1)cn2C [Example 33, (R)-3-cyano-N-(3-(1-(3,3-dimethylcyclobutane-1-carbonyl)-2,2-dimethylpiperidin-4-yl)-4-methoxy-1-methyl-1H-pyrrolo[2,3-b]pyridin-5-yl)benzamide] |
| 9.4 | 23.1 | COc1c(NC(=O)c2cccc(C#N)c2)cnc2c1c([C@@H]1CCN(C(=O)[C@@H](C)C(C)(C)C)C(C)(C)C1)cn2C [Example 34, 3-cyano-N-(3-((R)-2,2-dimethyl-1-((S)-2,3,3-trimethylbutanoyl)piperidin-4-yl)-4-methoxy-1-methyl-1H-pyrrolo[2,3-b]pyridin-5-yl)benzamide] |
| 3.2 | 12.7 | COc1c(NC(=O)c2ccc(SC)c(C#N)c2)cnc2c1c(C1CCN(C(=O)[C@H](C)C(C)(C)C)CC1)cn2C [Example 35, (R)-3-cyano-N-(4-methoxy-1-methyl-3-(1-(2,3,3-trimethylbutanoyl)piperidin-4-yl)-1H-pyrrolo[2,3-b]pyridin-5-yl)-4-(methylthio)benzamide] |
